Entries after “also recorded” stand apart in the source; their conditions may differ.
Assays:
Format in all cases: in vivo, human
[1] = Muscle thickness of elbow flexors and knee extensors via ultrasonography; settings: for MTEF ES (d) / MTKE ES (d): Cohen's d baseline vs week 8; for MTEF Δ (%) / MTKE Δ (%): change baseline to week 8 relative to baseline; for MTEF (cm) Week 8: muscle thickness elbow flexors; for MTEF (cm) Week 8 / MTKE (cm) Week 8: mean ± SE; for MTKE (cm) Week 8: muscle thickness knee extensors; for MTEF (cm) Δ / MTKE (cm) Δ: week 8 minus baseline
Experimental: In addition to whole-body composition estimates, muscle thickness of the elbow flexors (MTEF) and knee extensors (MTKE) was evaluated via ultrasonography (Logiq e, General Electric. Boston, Mass. USA) at baseline and study completion. […] These distances were measured while the participant was standing, and measurement distances at baseline were recorded and used at the final assessment. All assessments took place on the right side of the body. In the supine position, the participant's arm was abducted to ˜80° with the arm supported for elbow flexor measurements. For knee extensor measurements, a foam pad was placed beneath the knee to allow an ˜10° bend at the knee joint. For all assessments, transmission gel was generously applied to the marked measurement location, and minimal pressure was applied by the transducer in order to avoid tissue compression. Three single transverse images were taken at each location, with values averaged for analysis. The gain and depth of the transducer were kept consistent for all measurements at a given site. Ultrasound images were blinded for analysis and analyzed by a single blinded researcher using ImageJ (v. 1.52a; National Institutes of Health, USA). The reliability of the researcher analyzing ultrasound images was determined through blinded analysis of 28 randomly selected ultrasound images on two occasions. This exercise produced minimum differences (MD) of 0.07 cm for MTEF and 0.14 cm for MTKE.

[2] = 1-repetition maximum and repetitions to failure, bench press and hip sled (leg press); settings: for 1RMBP (kg) Week 4 / 1RMBP (kg) Week 8: 1-repetition maximum bench press; for 1RMBP (kg) Week 4 / 1RMBP (kg) Week 8 / 1RMLP (kg) Week 8 / RTFBP (reps) Week 4 / RTFBP (reps) Week 8 / RTFLP (reps) Week 8: mean ± SE; for 1RMLP (kg) Week 8: 1-repetition maximum leg press; for 1RMBP Δ (%) / 1RMLP Δ (%) / RTFBP Δ (%) / RTFLP Δ (%): change baseline to week 8 relative to baseline; for RTFBP (reps) Week 4 / RTFBP (reps) Week 8: repetitions to failure bench press; for RTFBP (reps) Week 4 / RTFBP (reps) Week 8 / RTFLP (reps) Week 8: 70% of baseline 1-RM; for RTFLP (reps) Week 8: repetitions to failure leg press; for 1RMBP (kg) Δ / 1RMLP (kg) Δ / RTFBP (reps) Δ / RTFLP (reps) Δ: week 8 minus baseline
Source text: Assessments of muscular performance took place between 12:00 and 18:00 in the non-fasted state, and participants were instructed to follow their preferred food and fluid intake patterns prior to testing. The assessment began with a 5-minute warm up period using a self-selected pace on a stationary bicycle. This warm up period was followed by assessment of countermovement vertical jumps (CMVJ) performance, testing on a mechanized squat device, and muscular strength and endurance assessment on the bench press and hip sled exercises. At the 4-week assessment, the CMVJ and hip sled assessments were not performed.
Resistance exercise performance for the bench press and hip sled exercises was evaluated via the 1-repetition maximum (1RM) and repetitions to failure with 70% of the 1RM. The 1RM testing protocol was based on the recommendations of the National Strength and Conditioning Association (33). Briefly, after completing warm up sets, participants completed 2 to 3 repetitions using a load estimated to be near-maximal. 1RM attempts then commenced, with the goal of obtaining the 1RM in between 3 and 5 attempts. Three minutes of rest were allowed between attempts. The maximal weight lifted with proper form was recorded as the 1RM. After the 1RM was obtained, a 3-minute rest period was allowed before repetitions to failure (RTF) were completed using 70% of the 1RM. For all participants, the bench press was tested before the leg press in order to allow for recovery of the lower body following the mechanized squat testing.

[3] = Reported side effects / adverse events
[4] = Countermovement vertical jump (jump height); settings: for Jump Height ES (d): Cohen's d baseline vs week 8; for Jump Height Δ (%): change baseline to week 8 relative to baseline; for Jump Height Δ: week 8 minus baseline
Source text: For the CMVJ tests, participants completed eight trials while wearing their own footwear. Approximately 30 seconds rest separated each trial. Ground reaction force (GRF) data were obtained during the CMVJ using two force platforms sampled at 1 kHz (OPT464508; Advanced Mechanical Technology, Inc., Watertown, Mass. USA). Participants stood motionless with each foot positioned on a force platform and their hands on their hips before initiating the CMVJ with a countermovement action using a self-selected depth and jumping with maximum effort to achieve the highest vertical displacement possible. No instructions were provided for the landing phase except to land with each foot contacting its respective force platform from take-off and to stop downward motion and return to a motionless standing position. The raw GRF data from the two force platforms were smoothed using a fourth order low pass Butterworth digital filter with a 30 Hz cutoff frequency. The smoothed GRF from the two force platforms was then summed along the vertical axis to obtain the vertical GRF acting at the body center of mass. The start of the CMVJ was defined as the time when bodyweight was reduced by 2.5% (29). Take-off was defined as the time when the summed vertical GRF decreased below a 20 N threshold (30). Jump time was then calculated as the time elapsed between the start of the CMVJ and take-off, expressed in units of seconds. Vertical jump height was calculated using the impulse-momentum relationship and expressed in units of meters.

[5] = ITT analysis, Cohen's d baseline vs week 8
[6] = PP analysis, Cohen's d baseline vs week 8

## CC(C)(O)CC(=O)O [TRFHMB, β-hydroxy-β-methylbutyrate]
[1]; ITT analysis
  MTEF ES (d): 0.68
  MTKE ES (d): 0.33
  MTEF Δ (%): 8%
  MTKE Δ (%): 5%
  MTEF (cm) Week 8: 2.96 ± 0.09 cm
  MTKE (cm) Week 8: 4.33 ± 0.16 cm
  MTEF (cm) Δ: 0.22 cm
  MTKE (cm) Δ: 0.19 cm
[1]; PP analysis
  MTEF ES (d): 0.86
  MTKE ES (d): 0.31
  MTEF Δ (%): 9%
  MTKE Δ (%): 4%
  MTEF (cm) Week 8: 2.97 ± 0.10 cm
  MTKE (cm) Week 8: 4.44 ± 0.20 cm
  MTEF (cm) Δ: 0.24 cm
  MTKE (cm) Δ: 0.17 cm
[2]; ITT analysis
  1RMBP (kg) Week 4: 42.3 ± 2.4 kg
  1RMBP (kg) Week 8: 47.3 ± 2.5 kg
  1RMLP (kg) Week 8: 205.2 ± 15.0 kg
  1RMBP Δ (%): 21%
  1RMLP Δ (%): 57%
  RTFBP Δ (%): 68%
  RTFLP Δ (%): 145%
  RTFBP (reps) Week 4: 20.0 ± 1.6 reps
  RTFBP (reps) Week 8: 24.9 ± 1.8 reps
  RTFLP (reps) Week 8: 38.0 ± 5.4 reps
  1RMBP (kg) Δ: 8 kg
  1RMLP (kg) Δ: 75 kg
  RTFBP (reps) Δ: 10 reps
  RTFLP (reps) Δ: 23 reps
[2]; [5]
  1RMLP ES (d): 1.65
  RTFBP ES (d): 1.91
  RTFLP ES (d): 1.52
[2]; PP analysis only, vs 2.3 in CD
  Average ES for muscular endurance (RTFLP and RTFBP): 1.5
[2]; PP analysis
  1RMBP (kg) Week 4: 43 ± 4 kg
  1RMBP (kg) Week 8: 48 ± 4 kg
  1RMLP (kg) Week 8: 220 ± 19 kg
  1RMBP Δ (%): 20%
  1RMLP Δ (%): 51%
  RTFBP Δ (%): 79%
  RTFLP Δ (%): 94%
  RTFBP (reps) Week 4: 20 ± 2 reps
  RTFBP (reps) Week 8: 25 ± 3 reps
  RTFLP (reps) Week 8: 31 ± 6 reps
  1RMBP (kg) Δ: 8 kg
  1RMLP (kg) Δ: 74 kg
  RTFBP (reps) Δ: 11 reps
  RTFLP (reps) Δ: 15 reps
[2]; [6]
  1RMBP ES (d): 0.76
  1RMLP ES (d): 1.80
  RTFBP ES (d): 1.86
  RTFLP ES (d): 1.27
[3]; week 4, n=1 each
  Reported side effects at W4: morning fatigue; also recorded: bloated stomach
[3]; week 8, n=1
  Reported side effects at W8: bloated stomach
[4]; ITT analysis
  Jump Height ES (d): 0.65
  Jump Height Δ (%): 29%
  Jump Height Δ: 0.06
[4]; ITT analysis, week 8, mean ± SE, method b87 expresses jump height in meters
  Jump Height W 8: 0.27 ± 0.03
[4]; PP analysis
  Jump Height ES (d): 0.21
  Jump Height Δ (%): 9%
  Jump Height Δ: 0.02

Source: patent publication US20190209501A1, “COMPOSITIONS AND METHODS OF USE OF BETA-HYDROXY-BETA-METHYLBUTYRATE (HMB) […] IN[…]” (Texas Tech University Office of Research Commercialization, priority 2018, published 2019)
